Results taken from patent EP4417607A1, “HETEROCYCLIC COMPOUND AS SOS1 INHIBITOR AND USES THEREOF” (Nanjing Zaiming Pharmaceutical Co., Ltd., priority 2021, dated 2023).

System: H358-SOS2 KO cells
Assay: H358-SOS2 KO cell proliferation inhibition (CellTiter-Glo, 3D methylcellulose)
Assay type: cell-based
Details: 192 h, 8 days, CTG
Protocol: The effect of the compounds of the present invention on the proliferation of H358 cells with knockout of SOS2 (H358-SOS2 KO, Kyinno Biotechnology Co., Ltd.) was assessed by CellTiter-Glo luminescent cell viability assay kit method. The H358-SOS2 KO cell strain was cultured in complete medium at 37 °C with 5% CO2. A sterilized 1% methylcellulose 3D medium was prepared in advance. Cells in the logarithmic growth phase were harvested and counted using a […]. The cell viability was determined by the trypan blue exclusion method, and the cell viability was kept 90% or more. The cell concentration was adjusted. The cells were uniformly mixed and left to stand. After no visible gas exists in the cell suspension, 180 µL of the cell suspension was added into a 96-well plate at 180 µL/well, and the total number of cells was 2000. The cells in the 96-well plate were incubated at 37 °C with 5% CO2. A diluted test compound was added to each well using a multi-channel pipette. […] The cell plate was placed at room temperature for 20 min to stabilize the luminescence signal. The luminescence value was read, and the data were collected. The data were analyzed using the GraphPad Prism 7.0 software. Dose-response curves were fit to the data using nonlinear S-curve regression, and the IC50 value was calculated from the curves.

## [2H][C@](C)(Nc1nc(C)nc2c(N3CCOCC3)c(=O)n(C3(CF)CC3)cc12)c1cccc(C(F)F)c1F [Example 55, (R)-4-((1-(3-(difluoromethyl)-2-fluorophenyl)ethyl-1-d)amino)-6-(1-(fluoromethyl)cyclopropyl)-2-methyl-8-morpholinylpyrido[4,3-d]pyrimidine-7(6H)-one]
  IC50: 79 nM
